Experiments:
[1] = Stability in human plasma (HPLC, radio-TLC, pellet/supernatant activity); type: in vitro ADME; details: for Stability in human plasma: 37 °C, up to 4 h, HPLC and radio-TLC; for Pellet activity / Supernatant activity: ACN precipitation
Method: Stability in plasma was evaluated mixing aliquots of [^18F]1 or [^18F]2 solutions (10 MBq for 2 h incubation and 20 MBq for 4 h incubation samples) with 200 µL of human serum. The mixtures were incubated at 37 °C. Aliquots were taken at 2 h and 4 h. Plasma pellet was precipitated with 200 µL acetonitrile and centrifuged (13,500 rpm, 10 min). The supernatant was removed, and the activity of the supernatant solution and pellet was measured using a dose calibrator (VIK-202 Comecer). The supernatant solution was analyzed injecting in RP-HPLC (diluted 1:5 in water) and Radio-TLC as above described.

[2] = system: LNCaP tumour-bearing NSG mice; experiment: PET/CT in vivo biodistribution and tumour uptake in subcutaneous LNCaP prostate cancer xenograft model; details: n = 4; for Bone (SUV mean) / Brain (SUV mean) / Colon (SUV mean) / Gall bladder (SUV mean) / Heart (SUV mean) / Kidney (SUV mean) / Liver (SUV mean) / Lung (SUV mean) / Muscle (SUV mean) / Salivary gland (SUV mean) / Small instestine (SUV mean): LNCaP NSG male mice, i.v., PET/CT; for ratio between tumour and muscle (tumour SUV max/muscle SUV mean) / uptake in the tumour expressed as SUV max: LNCaP tumour, NSG mice
Method: The uptake of [^18F]F-PSMA-1007 and [^18F]F-PSMA-617-NODA ([^18F]1) was compared in vivo in a xenograft model of human prostate cancer obtained using LNCaP cells which are PSMA positive, as confirmed by real time PCR-analysis (Additional file 1: S69A). LNCaP tumour-bearing NSG mice were injected i.v. with either [^18F]F-PSMA-1007 or [^18F]F-PSMA-617-NODA (~ 3.8 MBq/mouse, ~ 20 pmol for [^18F]F-PSMA-1007 and ~ 50 pmol [^18F]1). Radiotracer uptake was assessed after 10, 60 and 120 min post injection by whole-body PET/CT acquisitions.
Total body biodistribution of [^18F]F-PSMA-1007, [^18F]F-PSMA-617-NODA and [^18F]F-PSMA-617-RESCA was evaluated in vivo using imaging PET/CT. [^18F]F-PSMA-617-NODA uptake was compared to that of the [^18F]F-PSMA-1007 in a PSMA positive prostate tumour xenograft model (LNCaP). [^18F]F-PSMA-617-NODA and [^18F]F-PSMA-617-RESCA uptake were also evaluated using an orthotopic glioma model (Gli36ΔEGFR).
Animal experiments were carried out in compliance with institutional guidelines for the care and the use of experimental animals, which have been authorized by the Italian Ministry of Health (n° 378/2019-PR and 817/2021-PR). The animals were housed at constant temperature (23 °C) and relative humidity (40%) under a regular light/dark cycle with food and water available ad libitum. Seven to eight weeks old male NSG mice (Charles River Laboratories Italia s.r.l., Italy) were subcutaneously inoculated in the right flank with 5 × 10^6 of PSMA‐positive human prostate cancer cells (LNCaP) suspended in matrigel (1: 1, total volume 200 ul). The growth tumour was monitored periodically with calliper and tumour volume was calculated using the following formula: […]
When the tumour volume was about 230.8 ± 60.3 mm^3 (approximately 15 days after tumour cells inoculation), 4 animals performed an in vivo biodistribution of [^18F]F-PSMA-1007 and [^18F]F-PSMA-617-NODA, on successive but non-consecutive days, using PET/CT.
Mice were injected into a tail vein with 3.8 ± 0.1 MBq of [^18F]F-PSMA-1007, 4.0 ± 0.2 MBq of [^18F]F-PSMA-617-NODA ([^18F]1) and 3.8 ± 0.1 MBq of [^18F]F-PSMA-617-RESCA ([^18F]2), respectively.
Total body PET/CT acquisitions were performed using PET/CT tomographs dedicated to small animals, X-ß-CUBE (Molecubes, Gent, Belgium) after 10, 60 and 120 min from tracer injection. Each acquisition lasted 30 min and mice were maintained anesthetized (4% isoflurane in induction and 2% in maintenance in air) during acquisition.
Image quantification analysis was performed with PMOD 4.105 software (Zurich, Switzerland). Volumes of interest (VOIs) were drawn on peripheral organs (tumour, thoracic muscle, heart, liver, kidney, salivary glands, lung, small intestine, colon, bone, gall bladder) and on the healthy brain using CT images. For the glioma model, PET/CT images were co-registered to MRI images and two different VOIs were defined: (1) a control VOI covering the healthy left striatum (volume 4 mm^3) was drawn on the axial MR images, adjusted on the other imaging planes and then copied on the PET images of each mouse; (2) a second glioma-covering VOI was drawn in the tumour-affected brain hemisphere and centered on mice lesions.
For quantification, Standardized Uptake Value (SUV) was calculated according to the formula:
SUV = organ concentration activity [MBq/g]/(injected activity [MBq]/animal weight [g]).
The data were expressed as standardized-uptake-values (SUVmean and SUVmax) and as tumour-to-muscle (T/M) and tumour-to-blood (T/B) ratio in PCa model and as tumour-to-contralateral (T/Cl) ratio in glioma model.

[3] = [18F]1, 2 h incubation in plasma, total activity incubated 3.6 MBq
[4] = [18F]1, 4 h incubation in plasma, total activity incubated 3.89 MBq

## O=C(O)CCC(NC(=O)NC(CCCCNC(=O)C(Cc1ccc2ccccc2c1)NC(=O)C1CCC(CNC(=O)CCCN2CCN(CC(=O)O)CCN(CC(=O)O)CC2)CC1)C(=O)O)C(=O)O.[18F][Al] [[^18F]F-PSMA-617-NODA, (((S)-5-((S)-2-((1R,4S)-4-((4-(4,7-bis(carboxymethyl)-1,4,7-triazonan-1-yl)butanamido)methyl)cyclohexane-1-carboxamido)-3-(naphthalen-2-yl)propanamido)-1-carboxypentyl)carbamoyl)-L-glutamic acid [^18F] aluminium fluoride]
[1]; listed as [^18F]1
  Stability in human plasma: stable
[1]; listed as [^18F]PSMA-617-NODA
  Stability in human plasma: no substantial release of [^18F]AlF^2+
[1]; [3]
  Pellet activity: 0.4 MBq
  Supernatant activity: 3.2 MBq
[1]; [4]
  Pellet activity: 0.45 MBq
  Supernatant activity: 3.44 MBq
[1]; stability tests in human plasma
  protein uptake: ~ 11%
[2]; 10 min p.i.
  Bone (SUV mean): 0.20 ± 0.12
  Brain (SUV mean): 0.05 ± 0.003
  Colon (SUV mean): 0.30 ± 0.08
  Gall bladder (SUV mean): 0.27 ± 0.05
  Heart (SUV mean): 0.30 ± 0.03
  Kidney (SUV mean): 8.50 ± 1.40
  Liver (SUV mean): 0.22 ± 0.02
  Lung (SUV mean): 0.31 ± 0.04
  Muscle (SUV mean): 0.15 ± 0.05
  Salivary gland (SUV mean): 0.49 ± 0.05
  Small instestine (SUV mean): 0.23 ± 0.05
[2]; 60 min p.i.
  Bone (SUV mean): 0.23 ± 0.11
  Brain (SUV mean): 0.03 ± 0.01
  Colon (SUV mean): 0.17 ± 0.02
  Gall bladder (SUV mean): 0.14 ± 0.07
  Heart (SUV mean): 0.09 ± 0.02
  Kidney (SUV mean): 6.39 ± 2.14
  Liver (SUV mean): 0.10 ± 0.02
  Lung (SUV mean): 0.14 ± 0.01
  Muscle (SUV mean): 0.04 ± 0.01
  Salivary gland (SUV mean): 0.18 ± 0.08
  Small instestine (SUV mean): 0.16 ± 0.05
  ratio between tumour and muscle (tumour SUV max/muscle SUV mean): 30.29 ± 10.46
  uptake in the tumour expressed as SUV max: 1.11 ± 0.24
[2]; 120 min p.i.
  Bone (SUV mean): 0.25 ± 0.12
  Brain (SUV mean): 0.02 ± 0.01
  Colon (SUV mean): 0.13 ± 0.06
  Gall bladder (SUV mean): 0.03 ± 0.02
  Heart (SUV mean): 0.03 ± 0.01
  Kidney (SUV mean): 2.43 ± 1.24
  Liver (SUV mean): 0.04 ± 0.01
  Lung (SUV mean): 0.04 ± 0.01
  Muscle (SUV mean): 0.02 ± 0.01
  Salivary gland (SUV mean): 0.04 ± 0.02
  Small instestine (SUV mean): 0.06 ± 0.03
  ratio between tumour and muscle (tumour SUV max/muscle SUV mean): 83.53 ± 48.71
  uptake in the tumour expressed as SUV max: 0.94 ± 0.12

— article PMC11192711, “Automated radiosynthesis and preclinical evaluation of two new PSMA-617 derivatives radiolabelled via [^18F]AlF^2+ method” (EJNMMI Radiopharmacy and Chemistry, 2024)
